Laboratory results published in ChEMBL document CHEMBL1201862, “PubChem BioAssay data set” (2004).
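How tested: cells in 96-well plates exposed to compound for 48 hours at five concentrations. GI50 = concentration required for 50% inhibition of growth.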 Active and inactive are the calls of the source. Rule as the data show it: active = GI50 up to about 1.1 µM and inactive = higher.

Legend:
Assay in all cases: DTP human tumour cell line panel, 48 h
OVCAR-8 = tested on: OVCAR-8
HL-60 = tested on: HL-60
UACC-62 = tested on: UACC-62
IGROV-1 = tested on: IGROV-1
SF-539 = tested on: SF-539
HOP-92 = tested on: HOP-92
OVCAR-5 = tested on: OVCAR-5
MDA-MB-435 = tested on: MDA-MB-435
SK-MEL-28 = tested on: SK-MEL-28
Malme-3M = tested on: Malme-3M
SNB-75 = tested on: SNB-75
CCRF-CEM = tested on: CCRF-CEM
HCT-116 = tested on: HCT-116
NCI-H23 = tested on: NCI-H23
RPMI-8226 = tested on: RPMI-8226
UO-31 = tested on: UO-31
BT-549 = tested on: BT-549

Measured: GI50

C=CO/N=[N+](\[O-])N(CC)CC
inactive: OVCAR-8 > 100 µM | HL-60 > 100 µM | UACC-62 > 100 µM | IGROV-1 > 100 µM | SF-539 > 100 µM | HOP-92 > 100 µM | OVCAR-5 > 100 µM | MDA-MB-435 > 100 µM | SK-MEL-28 > 100 µM | Malme-3M > 100 µM | SNB-75 > 100 µM | CCRF-CEM > 100 µM | HCT-116 > 100 µM | NCI-H23 > 100 µM | RPMI-8226 > 100 µM

Cc1nc(=O)[nH]c2s/c(=N/C3CCCCC3)n(C3CCCCC3)c(=O)c12
inactive: OVCAR-8 > 100 µM | HL-60 > 100 µM | UACC-62 > 100 µM | IGROV-1 > 100 µM | SF-539 > 100 µM | HOP-92 > 100 µM | OVCAR-5 > 100 µM | MDA-MB-435 > 100 µM | SK-MEL-28 > 100 µM | UO-31 > 100 µM | Malme-3M > 100 µM | SNB-75 > 100 µM | CCRF-CEM > 100 µM | HCT-116 > 100 µM | NCI-H23 > 100 µM | RPMI-8226 > 100 µM

NCCCc1nonc1C(=O)O
inactive: OVCAR-8 > 100 µM | HL-60 > 100 µM | UACC-62 > 100 µM | IGROV-1 > 100 µM | SF-539 > 100 µM | HOP-92 > 100 µM | OVCAR-5 > 100 µM | MDA-MB-435 > 100 µM | SK-MEL-28 > 100 µM | UO-31 > 100 µM | Malme-3M > 100 µM | SNB-75 > 100 µM | CCRF-CEM > 100 µM | HCT-116 > 100 µM | NCI-H23 > 100 µM | RPMI-8226 > 100 µM

N#CC(C#N)=Cc1ccc2c(c1)OC(Cl)O2 (centres undefined)
inactive: OVCAR-8 31.6 µM | HL-60 6.92 µM | UACC-62 22.5 µM | SF-539 20.4 µM | OVCAR-5 20.9 µM | MDA-MB-435 14.3 µM | SK-MEL-28 19.9 µM | UO-31 16.9 µM | Malme-3M 18.1 µM | SNB-75 25.8 µM | CCRF-CEM 20.4 µM | HCT-116 18.9 µM | NCI-H23 31.1 µM | RPMI-8226 17.8 µM

CCCCC1=C(C(=O)N2CCOCC2)C2(OCCO2)C1Cl (centres undefined)
inactive: OVCAR-8 45.9 µM | HL-60 > 100 µM | UACC-62 31.6 µM | IGROV-1 32.4 µM | SF-539 16.4 µM | HOP-92 50.2 µM | OVCAR-5 19.4 µM | MDA-MB-435 21.7 µM | SK-MEL-28 23 µM | UO-31 56.6 µM | Malme-3M 33.6 µM | SNB-75 30.2 µM | CCRF-CEM > 100 µM | HCT-116 41.7 µM | NCI-H23 25.5 µM

Cc1ccc(C(=O)N/N=C(\N=N\c2ccccc2)c2ccc(N(C)C)cc2)cc1
inactive: OVCAR-8 > 100 µM | HL-60 > 100 µM | UACC-62 67.8 µM | IGROV-1 > 100 µM | SF-539 > 100 µM | HOP-92 > 100 µM | OVCAR-5 > 100 µM | MDA-MB-435 24 µM | SK-MEL-28 > 100 µM | UO-31 > 100 µM | BT-549 > 100 µM | CCRF-CEM > 100 µM | HCT-116 > 100 µM | NCI-H23 > 100 µM | RPMI-8226 > 100 µM

C=C(C)C1CC/C(C)=C/CCC2(C)OC2CC/C(CO)=C\C1O (centres undefined)
inactive: OVCAR-8 > 100 µM | HL-60 59.2 µM | UACC-62 80 µM | IGROV-1 68.1 µM | SF-539 67 µM | HOP-92 7.28 µM | OVCAR-5 > 100 µM | MDA-MB-435 60 µM | SK-MEL-28 > 100 µM | UO-31 > 100 µM | Malme-3M 52.1 µM | SNB-75 45.7 µM | CCRF-CEM 19.1 µM | HCT-116 > 100 µM | NCI-H23 > 100 µM | RPMI-8226 42.4 µM

CCOC(=O)C1Cc2ccc(C)cc2C1=O (centres undefined)
inactive: OVCAR-8 > 100 µM | HL-60 23.6 µM | UACC-62 49.1 µM | IGROV-1 70.6 µM | SF-539 > 100 µM | HOP-92 > 100 µM | OVCAR-5 > 100 µM | MDA-MB-435 54.5 µM | SK-MEL-28 23.8 µM | UO-31 48.6 µM | Malme-3M 70 µM | SNB-75 > 100 µM | CCRF-CEM 34 µM | HCT-116 > 100 µM | NCI-H23 55.6 µM | RPMI-8226 41.1 µM

COc1ccc(NC(=O)Oc2cc(C)c3ccc(=O)cc-3o2)c(OC)c1.COc1ccc(NC(=O)Oc2ccc3c(C)cc(=O)oc3c2)c(OC)c1
inactive: OVCAR-8 > 100 µM | UACC-62 > 100 µM | IGROV-1 > 100 µM | SF-539 > 100 µM | OVCAR-5 > 100 µM | MDA-MB-435 > 100 µM | SK-MEL-28 > 100 µM | UO-31 > 100 µM | Malme-3M > 100 µM | HCT-116 > 100 µM | NCI-H23 > 100 µM | RPMI-8226 > 100 µM

C=CCSC1=N/C(=C\c2ccc(C)cc2)C(=O)N1CC=C
inactive: OVCAR-8 24.8 µM | HL-60 12.2 µM | UACC-62 32.3 µM | IGROV-1 44.2 µM | SF-539 25.8 µM | HOP-92 11.7 µM | OVCAR-5 25.4 µM | MDA-MB-435 25.9 µM | SK-MEL-28 45.7 µM | UO-31 22.9 µM | BT-549 23.6 µM | HCT-116 18.4 µM | NCI-H23 32.7 µM | RPMI-8226 13.9 µM

COC(=O)C1CCC(=O)N1CN(C(C)=O)c1ccccc1 (centres undefined)
inactive: OVCAR-8 > 100 µM | HL-60 > 100 µM | UACC-62 > 100 µM | IGROV-1 > 100 µM | SF-539 > 100 µM | HOP-92 > 100 µM | OVCAR-5 > 100 µM | MDA-MB-435 > 100 µM | SK-MEL-28 > 100 µM | UO-31 > 100 µM | Malme-3M > 100 µM | SNB-75 > 100 µM | CCRF-CEM > 100 µM | HCT-116 > 100 µM | NCI-H23 > 100 µM | RPMI-8226 > 100 µM

CN1C(=O)CC2CCC(=O)N2c2cccnc21 (centres undefined)
inactive: OVCAR-8 > 100 µM | HL-60 > 100 µM | UACC-62 75.5 µM | IGROV-1 > 100 µM | SF-539 > 100 µM | MDA-MB-435 > 100 µM | SK-MEL-28 > 100 µM | UO-31 > 100 µM | BT-549 > 100 µM | Malme-3M > 100 µM | CCRF-CEM > 100 µM | HCT-116 > 100 µM | NCI-H23 > 100 µM | RPMI-8226 > 100 µM

O=C1c2ccccc2-c2oc(=O)c3ccccc3c21
inactive: OVCAR-8 > 100 µM | HL-60 > 100 µM | UACC-62 > 100 µM | IGROV-1 32.7 µM | SF-539 > 100 µM | HOP-92 > 100 µM | OVCAR-5 > 100 µM | MDA-MB-435 > 100 µM | SK-MEL-28 > 100 µM | UO-31 > 100 µM | SNB-75 > 100 µM | CCRF-CEM > 100 µM | HCT-116 > 100 µM | NCI-H23 > 100 µM | RPMI-8226 41.3 µM
